Assay results: patent publication US11879848B2, “Graphene-based multi-modal sensors” (The Regents of the University of California, priority 2015, dated 2024)

System: neonatal rat cardiomyocytes (CM)
Assay: cardiomyocyte contractions registered by PMMA/AuNI/graphene strain sensor in electrophysiological chamber
Format: cell-based
Conditions: 10 μM blebbistatin in the solution around the cells; CM culture on PMMA/AuNI/graphene; room temperature
Method: The graphene/metal nanoisland composite film structures can also be deployed in biological settings. For example, the performance of graphene/AuNI sensors in biological settings is tested by culturing neonatal rat cardiomyocytes (CM) on coverslips that are coated with a composite polymethylmethacrylate (PMMA)/AuNI/graphene film structure.
Using a specialized chamber shown in FIG. 4c and detailed below, reversible changes in the sensor signal that correlated with the spontaneous activity of cardiomyocytes can be detected, as shown in FIG. 4d.
An excitation-contraction uncoupler such as blebbistatin, that inhibits myosin cycling and stops the contractions of the cells, but not the electrical activity, can be used to distinguish whether the signal detected by the strain sensor was related to the contractile or electrical activity of the cells.
Electrophysiology. Neonatal rat ventricular cardiomyocytes were isolated using the neonatal rat cardiomyocyte isolation kit (Worthington) and cultured at 37° C. with 5% CO2. In brief, ventricles were dissected from 1 d-old Hsd:SD rats (Sprague Dawley), then digested overnight at 4° C. with trypsin. Digestion continued the following morning with collagenase for approximately 60 min at 37° C. […]

Cc1ccc2c(c1)C(=O)C1(O)CCN(c3ccccc3)C1=N2 (stereo not shown) [blebbistatin]
modulations of the sensor signal (contractions of the cells): No noticeable modulations of the signal
